The values that follow come from patent US20220306647A1, “NOVEL INDOLE-2-CARBOXAMIDES ACTIVE AGAINST THE HEPATITUS B VIRUS (HBV)” (AICURIS GMBH & CO. KG, priority 2019, published 2022).

SMILES strings stand for the structures. Like-named read-outs stand apart in the source and are kept apart here. Some results are limits rather than exact numbers.

One assay deals with HBV (HepAD38 cells). In words: HBV replication assay: determination of HBV DNA from the supernatants of HepAD38 cells. The assay is classed as cell-based. As to conditions: Hepatitis B virus, 144 h, HBV DNA in HepAD38 supernatant at day 6, qPCR, read-out: Cell activity. Summed up:
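HepAD38 cells seeded without tetracycline and treated with half-log compound dilutions; tetracycline-treated wells serve as cell control. On day 6, supernatant HBV DNA was purified and quantified by real-time PCR against plasmid standards; EC50 from non-linear regression of relative copy numbers, three experiments in triplicate.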

The target of assay [1] is T1, HBV core protein (C-terminal truncated core protein, 149 amino acids of the N-terminal assembly domain, BODIPY-FL labelled) (UniProt P03146).
T1 construct: fused on or other part: A single cysteine added after residue 149, at position 150; It carries the BODIPY-FL maleimide label
In words: Biochemical capsid assembly assay (fluorescence quenching). The gist of the method:
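Fluorescence quenching of BODIPY-FL-labelled core dimers (1.0 to 2.0 μM) in 50 mM HEPES pH 7.5; compounds at 8 concentrations, 0.5 log-unit dilutions from top 100, 31.6 or 10 μM, 0.5% DMSO. Assembly started with NaCl to […]; fluorescence (ex 477/em 525 nm) read after 6 min. EC50 by non-linear regression.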

The mark [2] stands for this setting: assembly started with NaCl, fluorescence read after 6 min, read-out: Assembly activity.
Where [3] appears, read: read-out: Assembly activity, assembly started with NaCl, fluorescence read after 6 min.

T1 sequence (P03146 whole entry, the tested form may be a part): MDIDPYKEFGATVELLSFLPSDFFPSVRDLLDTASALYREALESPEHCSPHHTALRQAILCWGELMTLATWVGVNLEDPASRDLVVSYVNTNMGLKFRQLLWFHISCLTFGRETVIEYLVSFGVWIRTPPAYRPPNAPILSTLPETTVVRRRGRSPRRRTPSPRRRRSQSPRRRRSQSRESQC

`CN1C(=O)c2c3c(nn2CCC12CC2)CCN(C(=O)c1cc2ccccc2[nH]1)C3` [Example 63, 4′-(1H-indole-2-carbonyl)-13′-methyl-4′, 8′,9′,13′-tetraazaspiro[cyclopropane-1,12′-tricyclo[7.5.0.0^2,]tetradecane]-1′,7′-dien-14′-one]: in the assay on HBV (HepAD38 cells), the EC50 is under 1 µM. Also, the IC50 in assay [1] (setting [2]) is under 5 µM.

`Cc1cccc2[nH]c(C(=O)N3CCc4nn5c(c4C3)C(=O)N(C)C3(CC3)C5)cc12` [Example 16, 4′-methyl-12′-(4-methyl-1H-indole-2-carbonyl)-4′,7′,8′,12′-tetraazaspiro[cyclopropane-1,5′-tricyclo[7.4.0.0^2′7]tridecane]-1′,8′-dien-3′-one]: in the assay with HBV (HepAD38 cells), the EC50 was under 1 µM. For the same compound, the IC50 in assay [1] (setting [2]) was under 5 µM.

Turning to `CN(Cc1ccccc1C(=O)O)C(=O)c1[nH]nc2c1CN(C(=O)c1cc3ccccc3[nH]1)CC2` [Example 24, 2-({1-[5-(1H-indole-2-carbonyl)-2H,4H,5H,6H,7H-pyrazolo[4,3-c]pyridin-3-yl]-N-methylformamido}methyl)benzoic acid], the EC50 with HBV (HepAD38 cells) fell in the range of 1 to 10 µM. For the same compound, in assay [1] (setting [2]), the IC50 was under 5 µM.

Take `CN1C(=O)c2c3c(nn2CC12CC2)CCN(C(=O)c1cc2c(F)cccc2[nH]1)C3` [Example 37, 12′-(4-fluoro-1H-indole-2-carbonyl)-4′-methyl-4′,7′,8′,12′-tetraazaspiro[cyclopropane-1,5′-tricyclo[7.4.0.0^2, □]tridecane]-1′,8′-dien-3′-one]: the EC50 with HBV (HepAD38 cells) is under 1 µM. Besides, the IC50 in assay [1] (setting [3]) was under 5 µM.

Consider `CN(Cc1ccccn1)C(=O)c1noc2c1CN(C(=O)c1cc3ccccc3[nH]1)CC2` [Example 26, 5-(1H-indole-2-carbonyl)-N-methyl-N-[(pyridin-2-yl)methyl]-4H,5H,6H,7H-[1,2]oxazolo[4,5-c]pyridine-3-carboxamide], for which the EC50 in the assay on HBV (HepAD38 cells) lay in the range of 1 to 10 µM. The IC50 in assay [1] (setting [2]) was under 5 µM.

For `CN(C(=O)c1cnn2c1CN(C(=O)c1cc3c(Cl)cc(Cl)cc3[nH]1)CC2)C1(c2ccc(C(=O)O)cc2)CC1` [Example 69, 4-{1-[N-methyl-5-(4,6-dichloro-1H-indole-2-carbonyl)-4H,5H,6H,7H-pyrazolo[1,5-a]pyrazine-3-amido]cyclopropyl}benzoic acid], the EC50 with HBV (HepAD38 cells) is under 1 µM. For the same compound, the IC50 in assay [1] (setting [3]) was under 5 µM.

For the compound `CN(C(=O)c1noc2c1CN(C(=O)c1cc3ccccc3[nH]1)CC2)C1([C@H]2OC[C@H](N)CO2)CC1` [Example 108, 5-(1H-indole-2-carbonyl)-N-methyl-N-{1-[(2r,5r)-5-amino-1,3-dioxan-2-yl]cyclopropyl}-4H,5H,6H,7H-[1,2]oxazolo[4,5-c]pyridine-3-carboxamide], the EC50 in the assay on HBV (HepAD38 cells) is under 1 µM. Besides, in assay [1] (setting [2]), the IC50 is under 5 µM.

On to `CN(C(=O)c1cnn2c1CN(C(=O)c1cc3c(F)c(F)ccc3[nH]1)CC2)C1(c2cccc(C(=O)O)c2)CC1` [Example 42, 3-{1-[N-methyl-5-(4,5-difluoro-1H-indole-2-carbonyl)-4H,5H,6H,7H-pyrazolo[1,5-a]pyrazine-3-amido]cyclopropyl}benzoic acid], for which the EC50 in the assay on HBV (HepAD38 cells) was in the range of 1 to 10 µM. Besides, the IC50 in assay [1] (setting [2]) was under 5 µM.

As for `Cc1cc(F)cc2[nH]c(C(=O)N3CCn4ncc(C(=O)N(C)C5(c6ncc(C(=O)O)cn6)CC5)c4C3)cc12` [Example 60, 2-{1-[N-methyl-5-(6-fluoro-4-methyl-1H-indole-2-carbonyl)-4H,5H,6H,7H-pyrazolo[1,5-a]pyrazine-3-amido]cyclopropyl}pyrimidine-5-carboxylic acid], the EC50 in the assay on HBV (HepAD38 cells) is 1 to 10 µM. Also, in assay [1] (setting [2]), the IC50 is under 5 µM.

On to `CCc1cc(F)cc2[nH]c(C(=O)N3CCc4onc(C(=O)N(C)C5(COC)CC5)c4C3)cc12` [Example 4, 5-(4-ethyl-6-fluoro-1H-indole-2-carbonyl)-N-[1-(methoxymethyl)cyclopropyl]-N-methyl-4H,5H,6H,7H-[1,2]oxazolo[4,5-c]pyridine-3-carboxamide], for which the EC50 in the assay with HBV (HepAD38 cells) is under 1 µM. Further, in assay [1] (setting [2]), the IC50 was under 5 µM.

With `CN(C(=O)c1cnn2c1CN(C(=O)c1cc3c(F)cc(F)cc3[nH]1)CC2)C1(c2ccc(C(=O)O)cc2)CC1` [Example 75, 4-{1-[N-methyl-5-(4,6-difluoro-1H-indole-2-carbonyl)-4H,5H,6H,7H-pyrazolo[1,5-a]pyrazine-3-amido]cyclopropyl}benzoic acid], in the assay on HBV (HepAD38 cells), the EC50 was under 1 µM. The IC50 in assay [1] (setting [2]) was under 5 µM.

Consider `O=C(c1cc2ccccc2[nH]1)N1CCc2onc(C(=O)N3CCCOCC34CC4)c2C1` [Example 96, 4-[5-(1H-indole-2-carbonyl)-4H,5H,6H,7H-[1,2]oxazolo[4,5-c]pyridine-3-carbonyl]-8-oxa-4-azaspiro[2.6]nonane], for which the EC50 with HBV (HepAD38 cells) is under 1 µM. The IC50 in assay [1] (setting [2]) was under 5 µM.

For `CN(C(=O)c1cnn2c1CN(C(=O)c1cc3cc(F)c(Cl)cc3[nH]1)CC2)C1(c2cccc(C(=O)O)c2)CC1` [Example 33, 3-{1-[N-methyl-5-(6-chloro-5-fluoro-1H-indole-2-carbonyl)-4H,5H,6H,7H-pyrazolo[1,5-a]pyrazine-3-amido]cyclopropyl}benzoic acid], the EC50 with HBV (HepAD38 cells) is under 1 µM. The IC50 in assay [1] (setting [2]) was under 5 µM.

Take `COCC1(N(C)C(=O)c2noc3c2CN(C(=O)c2cc4c(Cl)cccc4[nH]2)CC3)CC1` [Example 5, 5-(4-chloro-1H-indole-2-carbonyl)-N-[1-(methoxymethyl)cyclopropyl]-N-methyl-4H,5H,6H,7H-[1,2]oxazolo[4,5-c]pyridine-3-carboxamide]: the EC50 with HBV (HepAD38 cells) is under 1 µM. Also, in assay [1] (setting [2]), the IC50 is under 5 µM.

In the case of `CN(C(=O)c1cnn2c1CN(C(=O)c1cc3c(Cl)c(F)c(Cl)cc3[nH]1)CC2)C1(c2ccc(C(=O)O)cc2)CC1` [Example 110, 4-{1-[N-methyl-5-(4,6-dichloro-5-fluoro-1H-indole-2-carbonyl)-4H,5H,6H,7H-pyrazolo [1,5-a]pyrazine-3-amido]cyclopropyl}benzoic acid], the EC50 with HBV (HepAD38 cells) was under 1 µM. For the same compound, the IC50 in assay [1] (setting [3]) was under 5 µM.

Take `CN(C(=O)c1noc2c1CN(C(=O)c1cc3ccccc3[nH]1)CC2)C1(c2cocn2)CC1` [Example 2, 5-(1H-indole-2-carbonyl)-N-methyl-N-[1-(1,3-oxazol-4-yl)cyclopropyl]-4H,5H,6H,7H-[1,2]oxazolo[4,5-c]pyridine-3-carboxamide]: the EC50 in the assay with HBV (HepAD38 cells) is under 1 µM. Further, the IC50 in assay [1] (setting [2]) is under 5 µM.

On to `CN(C(=O)c1cnn2c1CN(C(=O)c1cc3ccccc3[nH]1)CC2)C1(c2cccc(C(=O)O)c2)CC1` [Example 13, 3-{1-[N-methyl-5-(1H-indole-2-carbonyl)-4H,5H,6H,7H-pyrazolo[1,5-a]pyrazine-3-amido]cyclopropyl}benzoic acid], for which the EC50 with HBV (HepAD38 cells) was 1 to 10 µM. Besides, the IC50 in assay [1] (setting [2]) is under 5 µM.

With `CN(C(=O)c1cnn2c1CN(C(=O)c1cc3ccccc3[nH]1)CC2)C1(c2ccc(C(=O)O)cn2)CC1` [Example 31, 6-{1-[N-methyl-5-(1H-indole-2-carbonyl)-4H,5H,6H,7H-pyrazolo[1,5-a]pyrazine-3-amido]cyclopropyl}pyridine-3-carboxylic acid], in the assay on HBV (HepAD38 cells), the EC50 is under 100 µM. In addition, the IC50 in assay [1] (setting [2]) is under 5 µM.

`CN1C(=O)c2c3c(nn2CC12CC2)CCN(C(=O)c1cc2c(F)c(F)ccc2[nH]1)C3` [Example 85, 12′-(4,5-difluoro-1H-indole-2-carbonyl)-4′-methyl-4′,7′,8′,12′-tetraazaspiro[cyclopropane-1,5′-tricyclo[7.4.0.0^2,7]tridecane]-1′,8′-dien-3′-one]: the EC50 in the assay with HBV (HepAD38 cells) was under 1 µM. Besides, the IC50 in assay [1] (setting [2]) is under 5 µM.

Take `CN(C(=O)c1onc2c1CN(C(=O)c1cc3ccccc3[nH]1)CC2)C1CC1` [Example 39, N-cyclopropyl-5-(1H-indole-2-carbonyl)-N-methyl-4,5,6,7-tetrahydroisoxazolo[4,3-c]pyridine-3-carboxamide]: the EC50 with HBV (HepAD38 cells) was under 1 µM. Further, in assay [1] (setting [3]), the IC50 is under 5 µM.

`CN(C(=O)c1cnn2c1CN(C(=O)c1cc3cc(F)c(F)cc3[nH]1)CC2)C1(c2ccc(C(=O)O)cc2)CC1` [Example 77, 4-{1-[N-methyl-5-(5,6-difluoro-1H-indole-2-carbonyl)-4H,5H,6H,7H-pyrazolo[1,5-a]pyrazine-3-amido]cyclopropyl}benzoic acid]: the EC50 in the assay on HBV (HepAD38 cells) is under 1 µM. The IC50 in assay [1] (setting [2]) is under 5 µM.

`CN(C(=O)c1cnn2c1CN(C(=O)c1cc3c(Cl)cc(F)cc3[nH]1)CC2)C1(c2ccc(C(=O)O)cc2)CC1` [Example 81, 4-{1-[N-methyl-5-(4-chloro-6-fluoro-1H-indole-2-carbonyl)-4H,5H,6H,7H-pyrazolo[1,5-a]pyrazine-3-amido]cyclopropyl}benzoic acid]: the EC50 in the assay with HBV (HepAD38 cells) is under 1 µM. Moreover, the IC50 in assay [1] (setting [2]) is under 5 µM.

On to `CN1C(=O)c2c3c(nn2CCC12CC2)CCN(C(=O)c1cc2cc(F)c(Cl)cc2[nH]1)C3` [Example 64, 4′-(6-chloro-5-fluoro-1H-indole-2-carbonyl)-13′-methyl-4′,8′,9′,13′-tetraazaspiro[cyclopropane-1,12′-tricyclo[7.5.0.0^2, Q]tetradecane]-1′,7′-dien-14′-one], for which the EC50 in the assay on HBV (HepAD38 cells) is under 1 µM. Further, the IC50 in assay [1] (setting [2]) is under 5 µM.

Take `Cc1cc(F)cc2[nH]c(C(=O)N3CCc4onc(C(=O)N[C@H](C)C(F)(F)F)c4C3)cc12` [Example 107, 5-(6-fluoro-4-methyl-1H-indole-2-carbonyl)-N-[(2R)-1,1,1-trifluoropropan-2-yl]-4H,5H,6H,7H-[1,2]oxazolo[4,5-c]pyridine-3-carboxamide]: the EC50 in the assay on HBV (HepAD38 cells) was under 1 µM. Moreover, the IC50 in assay [1] (setting [2]) was under 5 µM.
